The values below are quoted from earlier work in patent US12678449B2, “Compositions including cannabis and avocado/soybean unsaponifiables and methods of use” (Nutramax Laboratories, Inc., priority 2019, dated 2026).

Read-outs that look alike come from different tables or passages of the source.

The conditions of data set [1]: beagle dogs, oral, single dose.
For data set [2] the following is noted: human.

As to `C=C(C)[C@@H]1CCC(C)=C[C@H]1c1c(O)cc(CCCCC)cc1O` [CBD, 2-[(1R,6R)-3-methyl-6-prop-1-en-2-ylcyclohex-2-en-1-yl]-5-pentylbenzene-1,3-diol], the “median maximal concentration of CBD in serum” value in data set [1] (2 mg/kg CBD in olive oil) was 102.3 ng/mL; in data set [1] (8 mg/kg CBD in olive oil) it was 590.8 ng/mL. In addition, in data set [2] (10 mg dose of CBD (Guy et al.)), the CMAX was 2.47 ng/mL. In data set [2] (1 h after oral intake of 5.4 mg dose (Nadulski et al.)), the “mean plasma concentration of CBD” value was 0.95 ng/mL. Besides, the “mean plasma level of CBD” value in data set [2] (oral administration of 40 mg of CBD (Agurell et al.)) was 5.5 ng/mL.
